Laboratory results taken from patent publication US5932242A, “Ether lipid-containing pharmaceutical compositions and therapeutic uses thereof” (The Liposome Company, Inc., priority 1996, dated 1999).

How the values were obtained:
[1] = art knowledge; cited from earlier work
[2] = Monolayer mean molecular area per molecule (MMAM) measurement, Langmuir-Blodgett mini-trough; assay type: physicochemical; conditions: single-lipid monolayer, 23° C., 10 mM HEPES, 150 mM NaCl, pH 7.2, extrapolated to zero surface pressure
Text: A measure of the amount of space occupied by a lipid molecule is the mean area ("MMAM") that a molecule of the lipid occupies in a monolayer formed of that lipid. MMAM values for various lipids can readily be determined by ordinarily skilled artisans given the teachings of this invention, for example, as set forth in Example 1 below. MMAM values can be determined by first forming a lipid monolayer on the surface of an aqueous medium contained within a suitable trough, by the drop-wise addition of a lipid solution to the surface of the aqueous medium. […] Surface pressures for the different surface areas are recorded, and area-vs.-pressure curves compiled. MMAM values are obtained from these curves by extrapolating the steepest portion of the curve to a lipid's surface area at zero pressure.
The mean area occupied by a lipid molecule in a monolayer formed by a combination of cone-shaped and inverted cone-shaped lipids could be calculated according to the equation A0 =X^1 ·A^1 +X^2 ·A^2 (see Ali et al., the contents of which are incorporated herein by reference), wherein "A0 " is the MMAM expected of the lipids in the two component system, X^1 and X^2 are the relative mole percentages of the lipids in the combination, and A^1 and A^2 are the measured MMAM values of the individual lipids. Accordingly, the combination of lipids in a two-component monolayer would be expected to result in a mean molecular area per lipid molecule ("MMAMexpected ") reflective of the relative proportions in which each of the constituent lipids is present in the combination. That is, calculated in accordance with the above equation, the MMAM value expected of the lipids would be additive.
The mean molecular area per molecule of formulations containing the ether lipid ET-18-OCH3 was determined using a Langmuir-Blodgett mini-trough equipped with a dual barrier mechanism and a Wilhelmy balance, all obtained from KSV Instruments (Trumbull, Conn.). ET-18-OCH3 formulations were prepared from lipid powders that were dissolved in a solvent system of hexane:ethanol 9:1. Single lipid solutions and mixtures were made to contain an overall lipid concentration of approximately 1.5 mM which was quantitated precisely by phosphate (Chen et al., 1956) and cholesterol assays (Rudel & Morris, 1973). Monolayers were formed by dropwise addition of sample on to the aqueous surface (10 mM HEPES, 150 mM NaCl buffer, pH 7.2) at the center of the trough. Sample was added until the surface pressure just started to rise above zero, at which time the exact volume of sample added was recorded. After waiting three minutes for solvent evaporation and monolayer stabilization, the surface area of the monolayer was reduced at a rate of 15 cm^2 /min, and surface pressure was recorded. The solution level was maintained 1 mm below the top edge of the trough to avoid leakage; contact was maintained with the barriers (composed of Delrin) due to their hydrophilic nature.
Pressure vs. area curves were compiled from data obtained as described above (see FIGS. 1 and 2), and MMAM values were determined by extrapolating the steepest portion of the curve to the value at zero surface pressure. […] All experiments were done at 23° C. […] MMAMs (A0) were determined for each lipid by extrapolation of the steepest portion of the curves to the value at zero surface pressure; and are as follows: ET-18-OCH3 : 72.8 Å^2; CHOL: 44.8 Å^2; DOPE: 82.3 Å^2; POPC: 82.0 Å^2; and, DOPC: 82.0 Å^2.

[3] = Hemolysis of washed human red blood cells (H50); assay type: cell-based; conditions: human, red blood cells
Protocol: (§1) The hemolytic activity of ET-18-OCH3 /CHOL, DOPE, POPC or DOPC liposomes, prepared as described below in Example 2, have also been examined, as described hereinbelow in Example 3. Results, presented hereinbelow in FIG. 3, are in the form of the ET-18-OCH3 concentration in the various liposomes required to achieve hemolysis of 50% of the red blood cells present in a sample (H50).
(§2) […] All liposomes were extruded, in order to assure uniform size distribution.
(§3) Hemolysis was assessed as previously described (Perkins et al., 1992). Briefly, each sample was serially diluted with buffer solution and 0.3 ml of each diluted solution was mixed with 0.3 ml of washed human red blood cells [4% in PBS (v/v)]. For controls, 0.3 ml of the red blood cell suspension was mixed with either 0.3 ml of buffer solution (negative hemolysis control) or 0.3 ml of distilled water (positive hemolysis control). Samples and standards were placed in a 37° C. incubator and agitated for 20 hours. Tubes were centrifuged at low speed (2000 g) for 10 minutes to pellet RBCs. Two hundred μl of the supernatant was removed and mixed with 1 ml of water. Hemolysis was quantitated by absorbance at 550 nm using a Shimadzu 2101 UV-Vis Scanning Spectrophotometer (Shimadzu Corp., Kyoto, Japan). One hundred percent hemolysis was defined as the maximum amount of hemolysis obtained from free ET-18-OCH3.

human red blood cells = assay: Hemolysis of washed human red blood cells (H50); assay type: cell-based; conditions: concluded from hemolysis of 60 mole % ET-18-OCH3 /cholesterol SUVs
Protocol: as §1, §2, §3

Compound | packing parameter [1] | MMAM (A0) of individual lipid [2] [Å^2] | HC50 at 20 h [3] [µM] | Ability to form stable liposome structures (human red blood cells)
CC(C)CCC[C@@H](C)[C@H]1CC[C@H]2[C@@H]3CC=C4C[C@@H](O)CC[C@]4(C)[C@H]3CC[C@]12C [CHOL, cholesterol] | 1.2-1.3 | 44.8 |  | 
CCCCCCCC/C=C\CCCCCCCC(=O)OCC(COP(=O)([O-])OCC[N+](C)(C)C)OC(=O)CCCCCCC/C=C\CCCCCCCC (stereo not drawn) [DOPC, dioleoyl phosphatidylcholine] |  | 82.0 |  | 
CCCCCCCC/C=C\CCCCCCCC(=O)OCC(COP(=O)(O)OCCN)OC(=O)CCCCCCC/C=C\CCCCCCCC (stereo not drawn) [DOPE, dioleoyl phosphatidylethanolamine] | 1.2-1.3 | 82.3 |  | 
CCCCCCCCCCCCCCCCCCOC[C@H](COP(=O)([O-])OCC[N+](C)(C)C)OC [ET-18-OCH3, 1-O-octadecyl-2-O-methyl-sn-3-phosphorylcholine] |  | 72.8 | 16 | does not form stable liposome structures above a 1:1 stoichiometry
CCCCCCCC/C=C\CCCCCCCC(=O)OC(COC(=O)CCCCCCCCCCCCCCC)COP(=O)([O-])OCC[N+](C)(C)C (stereo not drawn) [POPC, palmitoyloleoyl phosphatidylcholine] |  | 82.0 |  | 
